Test results: PMC2248166, “Quantitative peptide binding motifs for 19 human and mouse MHC class I molecules derived using positional scanning combinatorial peptide libraries” (Immunome Research, 2008)
Where a SMILES comes first, the peptide text is derived from it.

Target: HLA A*3001 (Homo sapiens, UniProt P04439, D140H/D185E/E176W/F33S/G80R/H175R/K168Q/R138E/R41S)
Assay: biochemical
Format: binding

HLA A*3001, sequence (P04439 25-365 limits assumed, stated change not applied): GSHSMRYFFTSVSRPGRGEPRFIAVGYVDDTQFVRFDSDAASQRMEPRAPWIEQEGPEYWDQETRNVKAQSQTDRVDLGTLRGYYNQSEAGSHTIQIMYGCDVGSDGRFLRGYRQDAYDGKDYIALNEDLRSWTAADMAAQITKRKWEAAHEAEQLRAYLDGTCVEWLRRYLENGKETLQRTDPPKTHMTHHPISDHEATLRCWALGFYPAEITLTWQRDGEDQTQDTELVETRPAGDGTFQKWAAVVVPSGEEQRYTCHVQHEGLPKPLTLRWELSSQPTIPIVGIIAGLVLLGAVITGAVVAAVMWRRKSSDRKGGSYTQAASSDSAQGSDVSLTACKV

Structure (SMILES)	IC50
CC(C)C[C@H](NC(=O)[C@H](CCC(N)=O)NC(=O)[C@H](Cc1c[nH]cn1)NC(=O)[C@H](CCCCN)NC(=O)[C@H](CO)NC(=O)[C@H](CO)NC(=O)[C@@H](NC(=O)[C@@H](N)CCCCN)C(C)C)C(=O)N[C@H](C(=O)O)C(C)C [3102.0182] (H-KVSSKHQLV-OH)	14 nM
CC(C)C[C@H](N)C(=O)N[C@H](C(=O)N[C@@H](CCCCN)C(=O)N[C@@H](CO)C(=O)N[C@@H](CO)C(=O)N[C@@H](Cc1ccccc1)C(=O)N[C@H](C(=O)N[C@@H](CCCCN)C(=O)N[C@@H](CCCCN)C(=O)O)C(C)C)C(C)C [3102.0185] (H-LVKSSFVKK-OH)	5.6 nM
CC[C@H](C)[C@H](NC(=O)[C@@H]1CCCN1C(=O)[C@H](C)NC(=O)[C@H](CO)NC(=O)[C@H](C)NC(=O)[C@@H]1CCCN1C(=O)[C@H](CCCCN)NC(=O)[C@@H](NC(=O)[C@@H](N)CCCNC(=N)N)[C@@H](C)O)C(=O)O [3102.0187] (H-RTKPASAPI-OH)	0.11 nM
CC[C@H](C)[C@H](NC(=O)[C@H](Cc1ccccc1)NC(=O)[C@H](CC(C)C)NC(=O)[C@H](CC(=O)O)NC(=O)[C@H](CCCNC(=N)N)NC(=O)[C@@H](NC(=O)[C@@H](N)CCCNC(=N)N)[C@@H](C)O)C(=O)N[C@@H](C)C(=O)N[C@@H](CC(C)C)C(=O)O [3102.0188] (H-RTRDLFIAL-OH)	0.11 nM
CC[C@H](C)[C@H](NC(=O)[C@@H](NC(=O)[C@@H](N)CCCCN)[C@@H](C)O)C(=O)N[C@@H](Cc1c[nH]c2ccccc12)C(=O)N[C@@H](CCC(=O)O)C(=O)N[C@H](C(=O)N1CCC[C@H]1C(=O)N[C@@H](CCC(N)=O)C(=O)N[C@@H](CCCCN)C(=O)O)[C@@H](C)CC [3102.0190] (H-KTIWEIPQK-OH)	12 nM
CC[C@H](C)[C@H](NC(=O)[C@@H](NC(=O)[C@@H](N)CCCCN)C(C)C)C(=O)N[C@H](C(=O)N[C@@H](CCCNC(=N)N)C(=O)N[C@@H](CC(N)=O)C(=O)N[C@@H](CC(C)C)C(=O)N[C@@H](CC(N)=O)C(=O)N[C@@H](CCCCN)C(=O)O)C(C)C [3102.0191] (H-KVIVRNLNK-OH)	1.4 nM
CC(C)C[C@H](NC(=O)[C@H](Cc1c[nH]c2ccccc12)NC(=O)[C@H](CCCCN)NC(=O)[C@@H](NC(=O)[C@@H](N)CCCCN)C(C)C)C(=O)N[C@@H](CCC(N)=O)C(=O)N[C@@H](CC(N)=O)C(=O)N[C@@H](CO)C(=O)N[C@H](C(=O)O)C(C)C [3102.0194] (H-KVKWLQNSV-OH)	0.5 nM
CSCC[C@H](NC(=O)[C@@H]1CCCN1C(=O)[C@H](CC(C)C)NC(=O)[C@H](CO)NC(=O)[C@H](CCC(=O)O)NC(=O)[C@H](CCCCN)NC(=O)[C@H](CC(N)=O)NC(=O)[C@@H](N)CCCCN)C(=O)N[C@@H](CC(C)C)C(=O)O [3102.0195] (H-KNKESLPML-OH)	18 nM
CC[C@H](C)[C@H](NC(=O)[C@H](CO)NC(=O)[C@@H](NC(=O)[C@H](CCCCN)NC(=O)[C@H](CCCCN)NC(=O)[C@H](CCC(N)=O)NC(=O)[C@@H](N)CCCNC(=N)N)[C@@H](C)CC)C(=O)N[C@@H](CC(C)C)C(=O)N[C@H](C(=O)O)C(C)C [3102.0196] (H-RQKKISILV-OH)	0.36 nM
CC(C)[C@H](NC(=O)[C@@H](N)CCCNC(=N)N)C(=O)N[C@@H](Cc1c[nH]cn1)C(=O)N[C@@H](CC(=O)O)C(=O)N[C@H](C(=O)N[C@@H](CC(N)=O)C(=O)N[C@@H](C)C(=O)N[C@H](C(=O)N[C@@H](CCCCN)C(=O)O)[C@@H](C)O)[C@@H](C)O [3102.0197] (H-RVHDTNATK-OH)	7.7 nM
CC(C)C[C@H](NC(=O)[C@H](Cc1ccccc1)NC(=O)[C@@H](NC(=O)[C@H](Cc1ccc(O)cc1)NC(=O)[C@H](CCCNC(=N)N)NC(=O)[C@@H](NC(=O)[C@@H](N)CC(N)=O)C(C)C)C(C)C)C(=O)N[C@@H](Cc1ccc(O)cc1)C(=O)N[C@@H](CCCCN)C(=O)O [3102.0198] (H-NVRYVFLYK-OH)	9.9 nM
CC[C@H](C)[C@H](N)C(=O)N[C@@H](CO)C(=O)N[C@@H](CCCNC(=N)N)C(=O)N[C@@H](CC(N)=O)C(=O)N[C@@H](CCCCN)C(=O)N[C@@H](CC(N)=O)C(=O)N[C@H](C(=O)N[C@@H](Cc1ccccc1)C(=O)N[C@H](C(=O)O)C(C)C)[C@@H](C)CC [3102.0199] (H-ISRNKNIFV-OH)	7.3 nM
CC[C@H](C)[C@H](NC(=O)[C@H](CCCCN)NC(=O)[C@@H](NC(=O)CN)[C@@H](C)O)C(=O)N[C@@H](C)C(=O)N[C@@H](CC(C)C)C(=O)N[C@@H](CC(C)C)C(=O)N[C@@H](CCC(=O)O)C(=O)N[C@@H](CC(C)C)C(=O)O [3102.0200] (H-GTKIALLEL-OH)	1.3 nM
CC[C@H](C)[C@H](NC(=O)[C@H](CCCCN)NC(=O)[C@@H](NC(=O)[C@@H](N)CCCNC(=N)N)[C@@H](C)O)C(=O)N[C@H](C(=O)N[C@@H](CO)C(=O)N[C@@H](CC(C)C)C(=O)N1CCC[C@H]1C(=O)N[C@@H](CC(C)C)C(=O)O)[C@@H](C)O [3102.0201] (H-RTKITSLPL-OH)	0.087 nM
CC[C@H](C)[C@H](NC(=O)[C@H](C)NC(=O)[C@@H](NC(=O)[C@@H](NC(=O)[C@H](C)NC(=O)[C@H](Cc1ccccc1)NC(=O)[C@@H](NC(=O)[C@@H](N)CCCCN)[C@@H](C)O)[C@@H](C)CC)[C@@H](C)CC)C(=O)N[C@H](C(=O)O)C(C)C [3102.0202] (H-KTFAIIAIV-OH)	24 nM
CSCC[C@H](N)C(=O)N[C@@H](CO)C(=O)N[C@@H](CCCNC(=N)N)C(=O)N[C@@H](CCCNC(=N)N)C(=O)N[C@@H](Cc1ccc(O)cc1)C(=O)N[C@@H](CO)C(=O)N[C@@H](CCCNC(=N)N)C(=O)N[C@@H](CCC(=O)O)C(=O)N[C@@H](CCCCN)C(=O)O [3102.0203] (H-MSRRYSREK-OH)	1.3 nM
CC[C@H](C)[C@H](NC(=O)[C@H](C)NC(=O)[C@@H](N)CCCCN)C(=O)N[C@@H](CO)C(=O)N[C@@H](CC(N)=O)C(=O)N[C@@H](C)C(=O)N[C@@H](CCCNC(=N)N)C(=O)N[C@@H](CC(C)C)C(=O)N[C@@H](CCCCN)C(=O)O [3102.0204] (H-KAISNARLK-OH)	26 nM
CC[C@H](C)[C@H](NC(=O)[C@H](CCCNC(=N)N)NC(=O)[C@@H](NC(=O)[C@H](CC(=O)O)NC(=O)[C@H](CCCCN)NC(=O)[C@@H](NC(=O)[C@@H](N)CCCNC(=N)N)[C@@H](C)O)[C@@H](C)O)C(=O)N[C@@H](CCCCN)C(=O)N[C@@H](C)C(=O)O [3102.0205] (H-RTKDTRIKA-OH)	0.2 nM
CC[C@H](C)[C@H](NC(=O)[C@@H](N)CCCCN)C(=O)N[C@@H](CCCNC(=N)N)C(=O)N1CCC[C@H]1C(=O)N[C@H](C(=O)N[C@@H](CCCNC(=N)N)C(=O)N[C@@H](CO)C(=O)N[C@H](C(=O)N[C@@H](Cc1ccc(O)cc1)C(=O)O)C(C)C)[C@@H](C)O [3102.0206] (H-KIRPTRSVY-OH)	7.2 nM
CC[C@H](C)[C@H](NC(=O)[C@H](Cc1ccc(O)cc1)NC(=O)[C@H](C)NC(=O)[C@H](C)NC(=O)[C@H](Cc1c[nH]cn1)NC(=O)[C@H](CO)NC(=O)[C@H](CCCCN)NC(=O)[C@H](CO)NC(=O)[C@@H](N)CCSC)C(=O)O [3102.0207] (H-MSKSHAAYI-OH)	0.23 nM
CC(C)C[C@H](NC(=O)[C@@H](N)CCCNC(=N)N)C(=O)N[C@@H](CCCCN)C(=O)N[C@@H](CC(=O)O)C(=O)N[C@@H](Cc1ccc(O)cc1)C(=O)N[C@@H](CCC(N)=O)C(=O)N[C@@H](Cc1c[nH]cn1)C(=O)N[C@@H](Cc1ccccc1)C(=O)N[C@H](C(=O)O)C(C)C [3102.0208] (H-RLKDYQHFV-OH)	0.39 nM
